Assay results: patent US20050106305A1, “Beverage compositions comprising monatin and methods of making same” (Cargill, Inc., priority 2003, published 2005)
Where a SMILES comes first, the peptide text is derived from it.

Key:
[1] = Sensory evaluation of sweeteners in coffee and iced tea; format: in vivo; conditions: Coffee, 200 mL serving; aspartame 250 ppm, sucralose 82 ppm, R,R monatin 25 ppm + maltodextrin or erythritol (1 g, 0.5%)
Protocol: Monatin sweetener formulations, comprising R,R monatin or R,R monatin/erythritol combinations, were assessed relative to other known sweeteners (aspartame and sucralose) in coffee and iced tea. The key sensory parameters assessed included sweetness quality, aftertaste, bitter taste and its aftertaste. Qualitative evaluation was carried out.
Standard coffee was used in which to evaluate sweetener performance (Table 17).
Sweeteners were added to coffee at the following concentrations:
An ice tea formulation was developed to evaluate sweetener performance (Table 18).
Sweeteners were added to tea at the following concentrations:
The evaluation of these coffee and tea drinks was carried out by a panel (n=6) of experienced sensory evaluators who evaluated the coffee products on one tasting occasion and the tea products on a subsequent occasion.

[2] = Stability of monatin at pH 3 with increasing temperatures; format: physicochemical
Protocol: A sample of synthetic monatin was subjected to pH 3 at temperatures of 25° C., 50° C. and 100° C. At room temperature and pH 3, a 14% loss in monatin was observed over a period of 48 hours. This loss was attributed to lactone formation. At 50° C. and pH 3, a 23% loss in monatin was observed over a period of 48 hours. This loss was attributed to lactone formation and the buildup of an unknown compound after about 15.5 minutes. […] The major detectable component was an unknown at 15.5 minutes.

[3] = Stability when exposed to ultra violet (UV) light; format: physicochemical; conditions: phosphoric/citrate buffer at pH 3.0, ambient temperature; data not shown
From the text: UV instability can be accelerated by certain flavor systems. UV-absorbing packaging material, colorants and/or antioxidants can protect against UV light-induced flavor interactions in monatin-containing beverages.

[4] = Sensory stability of monatin in water; format: physicochemical
Protocol: The sensory stability of monatin (racemic mix described in Example 14) in water (8% SEV) was studied after storage at room temperature for 0 to 6 hours. The SEV was monitored (as described above in Example 14) at either 0-1 hours or 5-6 hours after preparing a monatin solution.

[5] = Time intensity profile in a soft drink system; format: in vivo; conditions: 80 ppm monatin, 10.0% sucrose, 200 ppm sucralose, pH 3.2 model soft drink
Protocol: Solutions of 80 ppm monatin (racemic mix of monatin described in Example 14), 10.0% (w/v) sucrose and 200 ppm sucralose were prepared in the pH 3.2 model soft drink system described in Example 14. The time intensity profile of these solutions then was assessed using the following procedure. Six panelists were included in the study. These panelists were screened for their general sensory acuity and selected for their sensitivity to sweetness intensity and sweetness quality differences. All were experienced in methods of sweetener assessment and had received special training in time intensity evaluations. Training sessions were carried out initially to familiarize the panel with the method of evaluation and scoring the samples over time using a computerized data entry system.
Samples of each solution (13 mL) were coded and presented individually to panelists, in random order. For each panelist, immediately after swallowing, the computer recorded timed intensity readings on the scale of 0-100 each second, up to 60 seconds. Each solution was evaluated in duplicate.

[6] = Sweetness dose response of monatin and saccharin, model system pH 3.2; format: in vivo
Protocol: Sweetness of monatin and saccharin was assessed using 20 trained sensory evaluators, making judgements in duplicate. Test and reference solutions were prepared in citric/citrate buffer at pH 3.2. […] The plateau above 10% SEV indicates absence/low levels of “mixture-suppressing” off-tastes and aftertastes. The shape of monatin's dose-response curve is similar to those of aspartame, sucralose and alitame, all of which are “quality” sweeteners.

[7] = Equisweet blends of monatin with carbohydrate sweeteners (parity to 10.0% sucrose); format: in vivo; conditions: for Effective Relative Sweetness Intensity (x sucrose) of Monatin: blend with sucrose equisweet to 10.0% sucrose
Protocol: Blends of monatin (as described in Example 14) with sucrose, HFCS (55% fructose), and glucose syrup (63 dextrose equivalents, DE) equisweet to 10.0% (w/v) sucrose were prepared. For each carbohydrate sweetener, the monatin:sweetener ratio was adjusted so that monatin delivered 25, 50, and 75% of the total sweetness. Sweetness parity to 10.0% (w/v) sucrose was determined using the sweetness estimation method described in Example 14. As in Example 14, all assessments were carried out in the pH 3.2 model soft drink system, using 6-8 panelists, each tasting in duplicate. Results are presented as Tables 7-9.

[8] = Quantitative synergy of monatin with other sweeteners; format: in vivo
[9] = Monatin dose response, sweetness estimation in pH 3.2 model soft drink system; format: in vivo; conditions: for SEV: pH 3.2 model soft drink system
Protocol: Solutions of monatin (mixture of approximately 96% of the 2R,4R/2S, 4S enantiometric pair and 4% of the 2R,4S/2S,4R enantiometric pair-also called “racemic mix” of monatin”) at 15, 30, 45, 60, 75 and 90 ppm were prepared in a pH 3.2 model soft drink system that contained 0.14% (w/v) citric acid and 0.04% (w/v) sodium citrate. The sweetness of monatin relative to sucrose was determined using the sweetness estimation methodology described below. All assessments were carried out in duplicate by a panel (n=6-8) of trained panelists experienced in this sweetness determination procedure. All samples were served at a temperature of 20° C. ±1° C.
Monatin solutions were coded and presented individually to panelists, in random order. Sucrose reference standards, ranging from 2.0-11.0% (w/v) sucrose, increasing in steps of 0.5% (w/v) sucrose also were provided. Panelists were asked to estimate sweetness by comparing the sweetness of the test solution to the sucrose standards. This was carried out by taking 3 sips of the test solution, followed by a sip of water, followed by 3 sips of sucrose standard followed by a sip of water, etc. Panelists were encouraged to estimate the sweetness to one decimal place, e.g., 6.8, 8.5. A five minute rest period was imposed between evaluating the test solutions. Panelists also were asked to rinse well and eat a cracker to reduce any potential carry over effects.

[10] = sole sweetener in the model system (pH 3.2)

COC(=O)[C@H](Cc1ccccc1)NC(=O)[C@@H](N)CC(=O)O [Aspartame, aspartame] (H-Asp-Phe-OMe)
Comments (sensory evaluation) [1]: Balanced sweetness profile. Very low level

NC(CC(O)(Cc1c[nH]c2ccccc12)C(=O)O)C(=O)O (racemic) [Monatin, 2-hydroxy-2-(indol-3-ylmethyl)-4-aminoglutaric acid]
loss in monatin ([2]; 50° C. and pH 3, over 48 hours): 23% | loss in monatin ([2]; 100° C. and pH 3, after 24 hours): nearly all monatin was lost | loss in monatin ([2]; room temperature (25° C.) and pH 3, over 48 hours): 14% | stability when exposed to ultra violet (UV) light [3]: similarly stable or slightly more stable than aspartame | loss of monatin SEV ([4]; 8% SEV, after 6 hours in room temperature): no detectable loss | lactonization (LC/MS) ([4]; room temperature, 0 to 6 hours): no lactonization | Area Under Curve [5]: 117.3 unit × s | Rate of Decline [5]: 2.2 unit/s | Rate of Onset [5]: 14.9 unit/s | Time for Sweetness to Decline to Half Maximum Value [5]: 34.2 s | Time to Half Maximum Sweetness [5]: 2.4 s | Time to Maximum Sweetness [5]: 9.0 s | Intensity of Maximum Sweetness ([5]; scale 0-100): 66.6 unit | Aftertaste [6, 10]: slight “aspartame-like” aftertaste | sweet taste decay [6, 10]: quite rapid | sweet taste onset [6, 10]: slight delay | cooling sensation ([6]; sole sweetener, un-flavored systems (pH 3.2)): residual cooling sensation | Effective Relative Sweetness Intensity (x sucrose) of Monatin ([7]; sweetness contribution of monatin 25%, sucrose 7.5%, monatin 12.3 ppm): 2000 x sucrose | Effective Relative Sweetness Intensity (x sucrose) of Monatin ([7]; sweetness contribution of monatin 50%, sucrose 5.0%, monatin 30.8 ppm): 1600 x sucrose | Effective Relative Sweetness Intensity (x sucrose) of Monatin ([7]; sweetness contribution of monatin 75%, sucrose 2.5%, monatin 50.3 ppm): 1500 x sucrose | sweetness intensity when blended with carbohydrate sweeteners ([7]; blended with carbohydrate sweeteners): 1500-2000 × sucrose | quantitative synergy with aspartame, saccharin, acesulfame-K, sucralose, or carbohydrate sweeteners ([8]; blends): no significant quantitative synergy | quantitative synergy with cyclamates ([8]; blends with cyclamates): quantitatively synergistic | SEV ([9]; Monatin Conc. 15 ppm): 3.6 %; w/v | SEV ([9]; Monatin Conc. 30 ppm): 4.9 %; w/v | SEV ([9]; Monatin Conc. 45 ppm): 7.1 %; w/v | SEV ([9]; Monatin Conc. 60 ppm): 8.5 %; w/v | SEV ([9]; Monatin Conc. 75 ppm): 9.8 %; w/v | SEV ([9]; Monatin Conc. 90 ppm): 10.5 %; w/v | relative sweetness intensity ([9]; at 10.0% (w/v) SEV, blend of monatin stereoisomers (racemic mix)): 1250 × sweeter than sucrose
